Legend:
Test in all cases: relative viability (nuclei count vs DMSO), 5 days (fraction); higher = more cells survive
201T = tested on: 201T
Summary of the method: (§1)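 Each reported value is a median over duplicate plates. It expresses relative viability: treated-well nuclei count divided by vehicle-well nuclei count. Lung cancer cell lines in 1536-well plates were dosed by pin tool a day after seeding, alone with one drug or with a fixed anchor-drug dose plus five library-drug doses (not always all listed) in √10 steps, and nuclei were counted after 5 days.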

A-427 = tested on: A-427
Summary of the method: as §1

BEN = tested on: BEN
Summary of the method: as §1

COR-L23 = tested on: COR-L23
Summary of the method: as §1

EKVX = tested on: EKVX
Summary of the method: as §1

HARA = tested on: HARA
Summary of the method: as §1

HCC-15 = tested on: HCC-15
Summary of the method: as §1

HCC-827 = tested on: HCC-827
Summary of the method: as §1

NCI-H1437 = tested on: NCI-H1437
Summary of the method: as §1

NCI-H1650 = tested on: NCI-H1650
Summary of the method: as §1

NCI-H1792 = tested on: NCI-H1792
Summary of the method: as §1

NCI-H1975 = tested on: NCI-H1975
Summary of the method: as §1

NCI-H2342 = tested on: NCI-H2342
Summary of the method: as §1

NCI-H23 = tested on: NCI-H23
Summary of the method: as §1

NCI-H358 = tested on: NCI-H358
Summary of the method: as §1

NCI-H441 = tested on: NCI-H441
Summary of the method: as §1

NCI-H596 = tested on: NCI-H596
Summary of the method: as §1

NCI-H650 = tested on: NCI-H650
Summary of the method: as §1

NCI-H838 = tested on: NCI-H838
Summary of the method: as §1

SK-MES-1 = tested on: SK-MES-1
Summary of the method: as §1

SW 900 = tested on: SW 900
Summary of the method: as §1

`COc1cc2nccc(Oc3ccc(NC(=O)Nc4cc(C)on4)c(Cl)c3)c2cc1OC` [Tivozanib] + Cc1nc(Nc2ncc(C(=O)Nc3c(C)cccc3Cl)s2)cc(N2CCN(CCO)CC2)n1 [Dasatinib] (partner 0.075 µM) was tested, and the relative viability (201T; first compound 0.005 µM) was 0.536, the relative viability (201T; first compound 0.01581 µM) was 0.566 and the relative viability (201T; first compound 0.05 µM) was 0.6. For the same molecule, the relative viability (201T; first compound 0.1581 µM) was 0.57, the relative viability (201T; first compound 0.5 µM) was 0.553 and the relative viability (A-427; first compound 0.005 µM) was 0.645. It also gave a relative viability (A-427; first compound 0.01581 µM) of 0.669, a relative viability (A-427; first compound 0.05 µM) of 0.699 and a relative viability (A-427; first compound 0.1581 µM) of 0.538. The relative viability (A-427; first compound 0.5 µM) was 0.686, the relative viability (BEN; first compound 0.005 µM) was 0.254 and the relative viability (BEN; first compound 0.01581 µM) was 0.342. The relative viability (BEN; first compound 0.05 µM) was 0.369, the relative viability (BEN; first compound 0.1581 µM) was 0.225 and the relative viability (BEN; first compound 0.5 µM) was 0.25. It also gave a relative viability (COR-L23; first compound 0.005 µM) of 0.484, a relative viability (COR-L23; first compound 0.01581 µM) of 0.515 and a relative viability (COR-L23; first compound 0.05 µM) of 0.462. For the same molecule, the relative viability (COR-L23; first compound 0.1581 µM) was 0.485, the relative viability (COR-L23; first compound 0.5 µM) was 0.452 and the relative viability (EKVX; first compound 0.005 µM) was 0.571. For the same molecule, the relative viability (EKVX; first compound 0.01581 µM) was 0.605, the relative viability (EKVX; first compound 0.05 µM) was 0.483 and the relative viability (EKVX; first compound 0.5 µM) was 0.474. The relative viability (HARA; first compound 0.005 µM) was 0.242, the relative viability (HARA; first compound 0.01581 µM) was 0.269 and the relative viability (HARA; first compound 0.05 µM) was 0.286. It also gave a relative viability (HARA; first compound 0.1581 µM) of 0.19, a relative viability (HARA; first compound 0.5 µM) of 0.251 and a relative viability (HCC-15; first compound 0.005 µM) of 0.534. The relative viability (HCC-15; first compound 0.01581 µM) was 0.579, the relative viability (HCC-15; first compound 0.05 µM) was 0.621 and the relative viability (HCC-15; first compound 0.1581 µM) was 0.67. It also gave a relative viability (HCC-15; first compound 0.5 µM) of 0.607, a relative viability (HCC-827; first compound 0.005 µM) of 0.288 and a relative viability (HCC-827; first compound 0.01581 µM) of 0.36. The relative viability (HCC-827; first compound 0.05 µM) was 0.317, the relative viability (HCC-827; first compound 0.1581 µM) was 0.338 and the relative viability (HCC-827; first compound 0.5 µM) was 0.231. The relative viability (NCI-H1437; first compound 0.005 µM) was 0.292, the relative viability (NCI-H1437; first compound 0.01581 µM) was 0.449 and the relative viability (NCI-H1437; first compound 0.05 µM) was 0.38. For the same molecule, the relative viability (NCI-H1437; first compound 0.1581 µM) was 0.284, the relative viability (NCI-H1437; first compound 0.5 µM) was 0.276 and the relative viability (NCI-H1650; first compound 0.005 µM) was 0.309. The relative viability (NCI-H1650; first compound 0.01581 µM) was 0.361, the relative viability (NCI-H1650; first compound 0.05 µM) was 0.346 and the relative viability (NCI-H1650; first compound 0.1581 µM) was 0.27. It also gave a relative viability (NCI-H1650; first compound 0.5 µM) of 0.267, a relative viability (NCI-H1792; first compound 0.005 µM) of 0.77 and a relative viability (NCI-H1792; first compound 0.01581 µM) of 0.819. For the same molecule, the relative viability (NCI-H1792; first compound 0.05 µM) was 0.815, the relative viability (NCI-H1792; first compound 0.1581 µM) was 0.843 and the relative viability (NCI-H1792; first compound 0.5 µM) was 0.848. The relative viability (NCI-H1975; first compound 0.005 µM) was 0.381, the relative viability (NCI-H1975; first compound 0.01581 µM) was 0.367 and the relative viability (NCI-H1975; first compound 0.05 µM) was 0.417. For the same molecule, the relative viability (NCI-H1975; first compound 0.1581 µM) was 0.278, the relative viability (NCI-H1975; first compound 0.5 µM) was 0.315 and the relative viability (NCI-H2342; first compound 0.005 µM) was 0.301. It also gave a relative viability (NCI-H2342; first compound 0.01581 µM) of 0.333, a relative viability (NCI-H2342; first compound 0.05 µM) of 0.326 and a relative viability (NCI-H2342; first compound 0.5 µM) of 0.33. The relative viability (NCI-H23; first compound 0.005 µM) was 0.693, the relative viability (NCI-H23; first compound 0.01581 µM) was 0.707 and the relative viability (NCI-H23; first compound 0.05 µM) was 0.769. It also gave a relative viability (NCI-H23; first compound 0.1581 µM) of 0.389, a relative viability (NCI-H23; first compound 0.5 µM) of 0.753 and a relative viability (NCI-H358; first compound 0.005 µM) of 0.136. It also gave a relative viability (NCI-H358; first compound 0.01581 µM) of 0.165, a relative viability (NCI-H358; first compound 0.05 µM) of 0.174 and a relative viability (NCI-H358; first compound 0.1581 µM) of 0.141. For the same molecule, the relative viability (NCI-H358; first compound 0.5 µM) was 0.184, the relative viability (NCI-H441; first compound 0.005 µM) was 0.642 and the relative viability (NCI-H441; first compound 0.01581 µM) was 0.584. It also gave a relative viability (NCI-H441; first compound 0.05 µM) of 0.498, a relative viability (NCI-H441; first compound 0.1581 µM) of 0.625 and a relative viability (NCI-H441; first compound 0.5 µM) of 0.394. The relative viability (NCI-H596; first compound 0.005 µM) was 0.55, the relative viability (NCI-H596; first compound 0.01581 µM) was 0.591 and the relative viability (NCI-H596; first compound 0.05 µM) was 0.575. It also gave a relative viability (NCI-H596; first compound 0.5 µM) of 0.522, a relative viability (NCI-H650; first compound 0.005 µM) of 0.344 and a relative viability (NCI-H650; first compound 0.01581 µM) of 0.509. For the same molecule, the relative viability (NCI-H650; first compound 0.05 µM) was 0.447, the relative viability (NCI-H650; first compound 0.1581 µM) was 0.368 and the relative viability (NCI-H650; first compound 0.5 µM) was 0.387. For the same molecule, the relative viability (NCI-H838; first compound 0.005 µM) was 0.212, the relative viability (NCI-H838; first compound 0.01581 µM) was 0.31 and the relative viability (NCI-H838; first compound 0.05 µM) was 0.292. It also gave a relative viability (NCI-H838; first compound 0.1581 µM) of 0.307, a relative viability (NCI-H838; first compound 0.5 µM) of 0.295 and a relative viability (SK-MES-1; first compound 0.005 µM) of 0.288. The relative viability (SK-MES-1; first compound 0.01581 µM) was 0.404, the relative viability (SK-MES-1; first compound 0.05 µM) was 0.442 and the relative viability (SK-MES-1; first compound 0.1581 µM) was 0.332. It also gave a relative viability (SK-MES-1; first compound 0.5 µM) of 0.416, a relative viability (SW 900; first compound 0.005 µM) of 0.566 and a relative viability (SW 900; first compound 0.01581 µM) of 0.53. For the same molecule, the relative viability (SW 900; first compound 0.05 µM) was 0.67, the relative viability (SW 900; first compound 0.1581 µM) was 0.426 and the relative viability (SW 900; first compound 0.5 µM) was 0.45.

— the supplement of paper PMC10307832
